Legend:
[1] = set-up: method as in PMID 28730290; details: mass balance study, major circulating metabolite; cited from earlier work
[2] = Safety assessments (adverse events) in healthy subjects; format: in vivo, human; details: Part A, fruquintinib 5 mg alone or with itraconazole, healthy subjects
Method: Safety was assessed by evaluation of adverse events (AEs), serious AEs, AEs of special interest, physical examinations, vital signs, single 12‐lead electrocardiograms and cardiac monitoring, and clinical laboratory data. All AEs were coded using the Medical Dictionary for Regulatory Activities Version 23.0, and their severity was graded using the National Cancer Institute Common Terminology Criteria for Adverse Events Version 5.0.

P‐gp = details: no reference given; cited from earlier work

Row | SMILES | share of total radioactivity exposure in plasma [1] | adverse events [2] | P‐gp substrate (P‐gp)
1 | COc1cc2ncnc(Oc3ccc4c(C(N)=O)c(C)oc4c3)c2cc1OC [M11] | approximately 17% | – | –
2 | CNC(=O)c1c(C)oc2cc(Oc3ncnc4cc(OC)c(OC)cc34)ccc12 [Fruquintinib] | – | no AEs reported | not a P‐gp substrate
